Results published in patent publication US9517202B2, “Phospholipid depot” (LATITUDE PHARMACEUTICALS INC., priority 2009, dated 2016).

Assay: Injectability test: force to extrude from 1 cc syringe through 25 G ½ inch needle at 2 cc/min
Assay type: physicochemical
Settings: 25 G ½ inch long needle
Source text: A major disadvantage of the polymer depots is that they require large diameter needles for injection or implantation due to the physical size of the microcapsules/microspheres and/or the high viscosity of the polymer gel. For example, 14- or 16-gauge (G) needles are required for implantation of Zoladex™ and 18 G or 20 G needles for injection of Eligard™. However, in common medical practice, needles of size greater than 21 G are generally not used for injection because they cause significant pain and psychological trauma for patients. […] The injectability or ease with which the end user can self-inject through such a system will be key to such a drug's user compliance and therapeutic efficacy. For discussion purposes herein, the injectability of a syringe-administered depot is quantitatively defined as meeting the “Acceptable Injectability Criterion” if it requires an applied force of no more than 10 pounds to be extruded from a 1 cc syringe through a 25 G ½ inch long needle at rate of 2 cc/min.
The phrase “Acceptable Injectability Criterion” as used herein includes quantitatively defining a formulation that requires an applied force of no more than 10 pounds to extrude the formulation from a 1 cc syringe through a 25 G ½ inch long needle at rate of 2 cc/min. […]
F-43 was a translucent one-phase gel. The injectability of F-43 was determined against the Acceptable Injectability Criterion. […]

With OCC(O)CO [glycerin] the maximum injection force was “approximately 8 pounds”.
